One series relates to AD patients. As to conditions: some clinical studies; cited from earlier work.
The subject of a further series is neuron death. As to conditions: cited from earlier work.
A further series concerns healthy humans. To be noted: cited from earlier work.
For series [1] the following is noted: both in vitro and in vivo studies; cited from earlier work.
The next series concerns MCI and mild AD. As to conditions: cited from earlier work.
The test system of the next series is MCI. To be noted: treatment of MCI; cited from earlier work.
Series [2] concerns patients with aMCI or mild AD. The series is described as follows: CIBIC-plus in 24-week trial.
A short description of series [3]: Brain mass by magnetic resonance imaging study. It counts as in vivo.
Series [4] has as its system patients with aMCI or mild AD. The series is described as follows: Additional cognition composite (speed of processing, working memory, verbal learning and memory) in 24-week trial.
The next series has as its system glial cells. To be noted: preclinical studies; cited from earlier work.
Series [5] deals with patients with aMCI or mild AD. Kind of series: Side effects, Udvalg for Kliniske Undersogelser Side-effects Rating Scale, in 24-week trial. It is filed as in vivo, human. How it is done:
Systemic side effects of treatments were evaluated by means of physical and neurological examinations and laboratory tests including CBC and biochemistry and reviewed by applying the Udvalg for Kliniske Undersogelser Side-effects Rating Scale at the baseline and weeks 8, 16, and 24.

In series [6] the test system is patients with schizophrenia. To be noted: 1000 mg/day, cited from earlier work.
Series [7] concerns patients with aMCI or mild AD. The series is described as follows: ADAS-cog in 24-week randomized double-blind placebo-controlled trial. To be noted: for ADAS-cog score, mean difference from baseline: all subjects.
For a further series, the system named is NMDAR models. To be noted: preclinical studies; cited from earlier work.

Take `N[C@@H]1CONC1=O` [D-cycloserine]: the “Score on the cognitive subscale of the Alzheimer's Disease Assessment Scale (ADAS-cog)” value with AD patients was “improve their score”.
In the case of `N[C@H](CO)C(=O)O` [D-serine], in the series on neuron death, the “Extent of neuron death” value is listed as “significantly decreases”.
As to `CNC1(c2ccccc2Cl)CCCCC1=O` (centres unmarked) [Ketamine], in the series on healthy humans, the “Spatial learning and verbal information ability” value is given as “impaired”.
In the case of `C[C@]12N[C@H](Cc3ccccc31)c1ccccc12` [MK-801], the Apoptosis and neurodegeneration entry in [1] is “induce apoptosis and neurodegeneration”.
With `CC12CC3CC(C)(C1)CC(N)(C3)C2` [Memantine], the “Efficacy in treating MCI (British Association for Psychopharmacology consensus statement)” value in the series with MCI and mild AD (MCI) is listed as “neither AChEIs nor memantine is effective”. Further, the “Efficacy at the early phase, including MCI and mild AD” value in the series with MCI and mild AD (human, in vivo) is “limited efficacy”.
Take `Nc1nc2ncc(CNc3ccc(C(=O)N[C@@H](CCC(=O)O)C(=O)O)cc3)nc2c(=O)[nH]1` [folic acid]: the Cognitive enhancing effect result with MCI is listed as “failed to show convincing evidence”.
Take `NC(=O)CN1CCCC1=O` [piracetam, reference compound]: the Cognitive enhancing effect entry in the series with MCI was “failed to show convincing evidence”.
Consider `O=C([O-])c1ccccc1.[Na+]` [sodium benzoate], for which the “CIBIC-plus vs placebo, subgroup” value in [2] (CDR 1 subgroup, week 24 and endpoint (p=.040, p=.018)) is given as “greater improvement than placebo therapy”. For the same compound, the “CIBIC-plus score, subgroup” value in series [2] (aMCI (CDR .5) subgroup) is listed as “did no improve”. Besides, in series [2] (at endpoint), the “CIBIC-plus effect size vs placebo” value is on record as “.73”. For the same compound, the “CIBIC-plus score vs placebo” value in [2] (week 16 (p=.015), week 24 (p=.016), endpoint (p=.012), all subjects) is reported as “greater improvement”. For the same compound, the Brain mass entry in series [3] is given as “can increase the brain mass”. For the same compound, the “Additional cognition composite vs placebo, subgroup” value in [4] (CDR 1 subgroup, p=.041) is “better efficacy”; in [4] (CDR .5 subgroup, p=.063), “borderline significance”. Further, in series [4] (endpoint), the “Additional cognition composite effect size vs placebo” value is on record as “.78”. Further, the “Additional cognition composite vs placebo” value in series [4] (endpoint, all subjects, p=.007) is “better than placebo”. The “Cell death in glial cells” value in the series with glial cells was “partially prevented cell death”. In series [5] (24-week treatment), the Tolerability result is “well-tolerated”. For the same compound, the “Reported side effects on Udvalg for Kliniske Undersogelser Side-effects Rating Scale” value in series [5] (all visits) was “no reported side effect”. In addition, the “Side effects in earlier schizophrenia study” value in series [6] (chronic schizophrenia) was “without obvious side effects”. For the same compound, in series [6] (patients with schizophrenia), the Neurocognitive function result is on record as “beneficial”. Further, the “ADAS-cog vs placebo, subgroup” value in series [7] (CDR 1 subgroup, weeks 16 and 24 and endpoint (p=0151, p=.0387, p=.0092)) is reported as “greater improvement than placebo therapy”; in [7] (CDR .5 subgroup, throughout the study (p>.05)), “not superior to the placebo therapy”. Besides, the “ADAS-cog effect size (Cohen's d) vs placebo” value in series [7] (at the end of the study) is listed as “.86”. Besides, the “ADAS-cog score, mean difference from baseline” value in [7] (endpoint, p=.0031 vs placebo) was 5.9; in series [7] (week 8, 250-750 mg/day, p=.3730 vs placebo), 3.8; in series [7] (week 16, p=.0021 vs placebo), 5.4; in series [7] (week 24, p=.0116 vs placebo), 5.9. In addition, the “Effect in NMDAR models such as pain relief” value in the series with NMDAR models was “effective”.
Turning to omega-3 fatty acid, in the series with MCI, the Cognitive enhancing effect result is “failed to show convincing evidence”.
For the compound vitamin E, the Cognitive enhancing effect result in the series on MCI is recorded as “failed to show convincing evidence”.
